Data published in US20060229290A1, “Staurosporine derivatives for hypereosinophilic syndrome” (priority 2003, published 2006).
Like-named read-outs stand apart in the source and are kept apart here.

Experiments:
[1] = system: FIP1L1-PDGFRαT674I; format: in vivo, Balb/c mice; settings: at time of death or trial endpoint
Description: (§1) The retroviral construct MSCV-FIP1L1-PDGFRα-ires-EGFP and the corresponding T674I mutant were described previously (Cools et al., New England Journal of Medicine Vol. 348 No. 13, p 1201-1214 2003). The N659D mutation was introduced by PCR (polymerase chain reaction).
(§2) Balb/c mice were purchased from Taconic (Germantown, N.Y.). Bone marrow transplant assays (injecting 1×10^6 cells per recipient mouse) and drug treatment of the mice was performed as described previously (Schwaller et al., 1998; Kelly et al.; Weisberg et al., 2002). Imatinib (stored as powder at 4° C.) was resuspended in a 0.5% methylcellulose (MC) solution in water prior to use. PKC412 (6% w/w in Gelucire® 44/14 (GC) (Gattefosse,France)) was stored at 4° C. as a waxy-solid formulation. Prior to administration, the GC/PKC412 waxy solid mixture was melted in a 44° C. water bath and diluted with sterilized deionized water. The animals were weighed at regular basis to ensure that a consistent dose (150 mg/kg/day for imatinib and 100 mg/kg/day for PKC412) of drug was administered. Dosing was performed every 12 hr for imatinib and every 24 hr for PKC412 by oral gavage of a maximum volume of 150 μl per animal using 22 gauge gavage needles (Hornbecks). Placebo animals received the same volume of a MC or GC solution. Any animals with splenomegaly (spleen boundary detectable at the dorsal medline) or that were moribund were sacrificed and analysed for signs of hematological disease. Peripheral blood was collected from the retroorbital cavity using a heparinized glass capillary. Blood smears were stained with Wright and Giemsa. Manual and automated (ADIVA 120 Hematology system, Bayer) total and differential blood cell counts were performed. Histopathologic exam of relevant organs (spleen, liver, heart, lungs, Intestine, hindlimb bones, and kidneys) and preparation of single-cell suspensions from spleen and bone marrow for flow cytometry was performed as described. In comparing the survival time of the mice, all times are measured from the day of BMT (bone marrow transplant), and the log rank test is used to attach a significance level to the difference in the survival curve.

[2] = target: T1, FIP1L1-PDGFRα wild type (Homo sapiens, UniProt P16234); assay: Bone marrow transplant model of FIP1L1-PDGFRα-induced myeloproliferative disease; format: in vivo, Balb/c mice; settings: at time of death or trial endpoint
T1 construct: FIP1L1 (N-terminal part of FIP1-like 1, Q6UN15); expressed in transfected cells; host or cells: Bone marrow cells retrovirally transduced with MSCV-FIP1L1-PDGFRα-ires-EGFP and transplanted into Balb/c mice; the other entry of the earlier key: FIP1L1 (Q6UN15, Pre-mRNA 3'-end-processing factor FIP1)
T1 sequence (P16234 593-1089 limits assumed): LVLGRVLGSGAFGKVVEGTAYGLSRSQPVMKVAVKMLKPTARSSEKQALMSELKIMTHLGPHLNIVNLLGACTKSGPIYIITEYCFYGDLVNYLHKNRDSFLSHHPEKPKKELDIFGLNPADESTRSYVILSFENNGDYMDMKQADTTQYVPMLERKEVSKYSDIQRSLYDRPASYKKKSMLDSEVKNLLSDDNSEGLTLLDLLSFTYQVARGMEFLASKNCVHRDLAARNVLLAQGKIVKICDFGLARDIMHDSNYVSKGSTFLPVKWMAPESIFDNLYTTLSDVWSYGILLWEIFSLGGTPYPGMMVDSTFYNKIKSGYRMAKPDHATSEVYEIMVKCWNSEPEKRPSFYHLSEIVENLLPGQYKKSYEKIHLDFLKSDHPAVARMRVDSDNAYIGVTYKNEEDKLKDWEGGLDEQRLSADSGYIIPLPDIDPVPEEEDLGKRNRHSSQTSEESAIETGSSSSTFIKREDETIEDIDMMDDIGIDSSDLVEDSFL
Description: as §1, §2

[3] = trial 1, FIP1L1-PDGFRαT674I, imatinib 150 mg/kg/day oral gavage
[4] = trial 2, FIP1L1-PDGFRα T674I, imatinib 150 mg/kg/day, PKC412 100 mg/kg/day, oral gavage
[5] = trial 1, FIP1L1-PDGFRα wild type, imatinib 150 mg/kg/day oral gavage
[6] = trial 2, FIP1L1-PDGFRα, imatinib 150 mg/kg/day, PKC412 100 mg/kg/day, oral gavage

Cc1ccc(NC(=O)c2ccc(CN3CCN(C)CC3)cc2)cc1Nc1nccc(-c2cccnc2)n1 [imatinib]
WBC, mean [1, 3]: 4.965e+08 mL⁻¹ | WBC, median [1, 3]: 5.077e+08 mL⁻¹ | WBC, range [1, 3]: 434.6-535.8 ×10^6/ml | WBC, mean [1, 4]: 5.482e+08 mL⁻¹ | WBC, median [1, 4]: 5.915e+08 mL⁻¹ | WBC, range [1, 4]: 364.9-657.6 ×10^6/ml | WBC, mean [2, 5]: 6e+06 mL⁻¹ | WBC, median [2, 5]: 5.2e+06 mL⁻¹ | WBC, range [2, 5]: 4.6-9.4 ×10^6/ml | WBC, mean [2, 6]: 4.8e+06 mL⁻¹ | WBC, median [2, 6]: 4.8e+06 mL⁻¹ | WBC, range [2, 6]: 4.4-5.3 ×10^6/ml
